Experimental data: publication PMC10606064, “2-Aminothiazole-Flavonoid Hybrid Derivatives Binding to Tau Protein and Responsible for Antitumor Activity in Glioblastoma” (International Journal of Molecular Sciences, 2023)

What was measured:
U251 glioblastoma cells = assay: MTT cell viability assay, U251; type: cell-based; settings: Homo sapiens, U-251, U251, 72 h, mean ± SEM, read-out: IC50 (metabolic activity)
Procedure: (§1) Cells harvested from sub-confluent monolayers were seeded at 15,000 cells per mL in a 96-well microtiter plate (Cambridge Technology, Labège, France) and cultured for 24 h under standard conditions. Standard medium was then replaced by fresh medium containing no drugs or compounds at different concentrations. The surviving cells were quantified after 72 h by the MTT assay, according to the manufacturer’s instructions. Briefly, 20 µL of 3-(4,5-diMethylThiazol-2-yl)-2,5diphenyl Tetrazolium bromide (MTT) solution at 5 mg.mL^−1 was added to cells for 3 h at 37 °C. The supernatant was discarded and replaced by 100 µL of dimethyl sulfoxide to dissolve formazan crystals. The absorbance was then read at 600 nm by spectrophotometry. For all concentrations of a given compound, cell viability was expressed as the percentage of the ratio between the mean absorbance of treated cells and the mean absorbance of untreated cells. Three independent experiments were performed, and the data were expressed as percentage of survival (using the untreated cells as 100%) and subjected to statistical analysis (n = 3). The IC50 was calculated using the Chou and Talalay method.

[1] = molecular target: T1, full-length human Tau (hTau40) (Homo sapiens, UniProt P10636); assay: Tau oligomerization inhibition assay (heparin-induced, thioflavin S fluorescence); type: biochemical; settings: 2 µM Tau, heparin-induced, ThS; buffer A pH 6.9; 25 °C per table footnote (37 °C in method); mean ± SD; read-out: Inhibition of Aggregation IC50
T1 construct: The full-length human Tau (hTau40) was expressed in a transformed E. coli BL21 (DE3) strain; made in house; host or cells: E. coli BL21 (DE3)
Procedure: Tau oligomerization inhibition assay was performed at 37 °C in 96-well plates by monitoring thioflavin-S fluorescence at 520 nm after excitation at 440 nm using a microplate reader (POLARstar Omega system, BMG Labtech, Paris, France). The Tau oligomerization process was induced by heparin. […] The plates were shaken at 200 rpm for 10 s before each measurement. The real value of fluorescence at the plateau was determined using SciDAVis v1.23 software. Data were fitted to the SciDAVis built-in ExpGrowth equation by means of nonlinear least-squares regression analysis. Y = Y0 + A × exp(x/t)(1)
The unscaled Levenberg–Marquardt algorithm was used, and initial values were given to Y0, A, and t. The final Y0 value of the model corresponds to the plateau value. The plateau values were then used to calculate the Tau oligomerization inhibition percentage. The IC50 for each compound was calculated from the scatter plot of Tau oligomerization inhibition (in percentage) as a function of log10 of compound concentration. The IC50 value (in µM) thus corresponds to ten raised to the power of […].

U138 glioblastoma cells = assay: MTT cell viability assay, U138; type: cell-based; settings: Homo sapiens, U138, 72 h, mean ± SEM, read-out: IC50 (metabolic activity)
Procedure: as §1

T98G glioblastoma cells = assay: MTT cell viability assay, T98G; type: cell-based; settings: Homo sapiens, 72 h, mean ± SEM, read-out: IC50 (metabolic activity)
Procedure: as §1

U87 glioblastoma cells = assay: MTT cell viability assay, U87; type: cell-based, human; settings: Homo sapiens; U87, 72 h, MTT; mean ± SEM; read-out: IC50 (metabolic activity)
Procedure: as §1

[2] = test system: SK-N-SH neuroblastoma cells; assay: MTT cell viability assay, SK-N-SH; type: cell-based; settings: Homo sapiens, 72 h, mean ± SEM, read-out: IC50 (metabolic activity)
Procedure: as §1

[3] = molecular target: T2, Tau protein (full-length human Tau, hTau40) (Homo sapiens, UniProt P10636); assay: Tau intrinsic fluorescence quenching, modified Stern–Volmer binding parameters; settings: 5 µM Tau, buffer B pH 6.8, mean ± SD; for Kd: read-out: Equilibrium Binding Constants to Tau, KD
T2 construct: The full-length human Tau (hTau40) was expressed in a transformed E. coli BL21 (DE3) strain; made in house; host or cells: E. coli BL21 (DE3)
Procedure: Fluorescence measurements were performed with a Horiba Jobin Yvon FluoroMax-3 spectrofluorometer. […] For experiments, the excitation wavelength was fixed at 275 nm, and the emission spectra were recorded between 280 nm and 500 nm at room temperature. The inner filter effects were corrected according to Lakowicz as follows:F = Fobs × exp{(Aem + Aex)/2}(2) where Fobs and F are the observed and corrected fluorescence values at the emission wavelength of 303 nm. Aex and Aem are the absorptions at the excitation and emission wavelengths, respectively, calculated with A = ε.l.C, in which ε is the extinction coefficient of Tau, l is the path length of cuvette, and C is Tau concentration.
The total fluorescence in the absence of quencher (F0) is given by:F0 = F0a + F0b(4) where 0 refers to the fluorescence intensity in the absence of quencher.
In the presence of quencher, we defined fa as the fraction of the initial fluorescence of Tau accessible to compounds:fa = F0a/(F0a + F0b)(5)
Therefore, the intensity of the accessible fraction (fa) is decreased according to the Stern–Volmer equation, whereas the buried fraction is not quenched, as given by:F = {F0a/(1 + K.[Q])} + F0b(6)
Then, subtraction of Equations (6) and (4) yields:ΔF = F0 − F = F0a × {K.[Q]/(1 + K.[Q])}(7)
At last, inversion of Equation (7) followed by division into Equation (4) yields:F0/ΔF = {1/(fa.K.[Q])} + 1/fa(8)
We applied this modified form of the Stern–Volmer equation to graphically determine the values of fa and K. For our experiments, we plotted F0/ΔF against 1/[Q], then we determined the fa value at the point of intersection with the y-axis, while the slope represented (faK)^−1.

[4] = test system: Caco-2 colon adenocarcinoma cells; assay: MTT cell viability assay, Caco-2; type: cell-based; settings: Homo sapiens, Caco-2 (not expressing Tau), 72 h, mean ± SEM, read-out: IC50 (metabolic activity)
Procedure: as §1

U87 shCTRL cells = assay: MTT cell viability assay, U87 shCTRL (expressing Tau); type: cell-based, human; settings: Homo sapiens; U87 shCTRL, 72 h, MTT; mean ± SEM; read-out: IC50 (metabolic activity)
Procedure: (§2) All cell lines were purchased from ATCC, Gaithersburg, MD, USA. Cells from human glioblastoma (clones U87 wt, HTB-14; U118, HTB-15; U251, HTB-12; U138, HTB-16), neuroblastoma (clone SK-N-SH, HTB-11), and colorectal adenocarcinoma (clone Caco-2, HTB-37) were routinely grown at 37 °C in a humidified atmosphere containing 5% CO2. Cells were maintained by regular passages in complete media supplemented with 10% FBS, 2mM of L-glutamine, 100 U/mL of penicillin, and 50 U/mL of streptomycin (Invitrogen, Paris, France). For U87 wt, U251, U138, and SK-N-SH cells, the medium consisted of EMEM (Lonza, Levallois Perret, France). U118 and Caco-2 lines were maintained in DMEM. The U87 wt-derived lines, U87 shCTRL, and U87 shTau2 cells were continuously maintained in complete EMEM medium supplemented with 0.4 µg/mL of puromycin. The shRNA sequences and the protocol of clone selection and Tau downregulation were previously described in [20]. For Tau expression rescue, the U87 shCTRL and U87 shTau cells were seeded two days prior to experiments at 4.10^5 cells per 60 mm dish in 6 mL of complete medium. Cells were transfected using LipofectAmine 2000 according to Invitrogen instructions and 8 µg EGFP-free plasmid constructs (for U87 shCTRL) and EGFP-hTau40 plasmid constructs (for U87 shTau) were used in total. One day prior to experiments, all cells were plated in a 96-well microtiter plate to prepare for viability assays. Cells were free from mycoplasma as determined by mycoalert tests (Lonza).
as §1

U87 shTau cells = assay: MTT cell viability assay, U87 shTau (Tau-depleted); type: cell-based; settings: Homo sapiens, 72 h, mean ± SEM, read-out: IC50 (metabolic activity)
Procedure: as §2, §1

T1 sequence (P10636 1-441 isoform P10636-8): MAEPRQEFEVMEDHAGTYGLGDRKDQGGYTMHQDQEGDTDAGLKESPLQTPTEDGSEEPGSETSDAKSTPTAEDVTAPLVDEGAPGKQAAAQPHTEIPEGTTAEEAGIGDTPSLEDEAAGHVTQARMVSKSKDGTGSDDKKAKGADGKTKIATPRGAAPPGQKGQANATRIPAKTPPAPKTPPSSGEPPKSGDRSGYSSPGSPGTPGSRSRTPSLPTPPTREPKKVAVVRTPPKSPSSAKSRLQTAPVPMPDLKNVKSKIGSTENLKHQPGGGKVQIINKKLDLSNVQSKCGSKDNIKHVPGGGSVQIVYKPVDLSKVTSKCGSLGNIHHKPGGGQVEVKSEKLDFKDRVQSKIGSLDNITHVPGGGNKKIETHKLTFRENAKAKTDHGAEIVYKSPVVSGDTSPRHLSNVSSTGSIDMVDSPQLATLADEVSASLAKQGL
T2 sequence (P10636 1-441 isoform P10636-8): as above

Row | Compound | IC50 (U251 glioblastoma cells) | IC50 [1] | IC50 (U138 glioblastoma cells) | IC50 (T98G glioblastoma cells) | IC50 (U87 glioblastoma cells) | IC50 [2] | Equilibrium Binding Constants to Tau, fA (Tyr accessible fraction) [3] | Kd [3] | IC50 [4] | IC50 (U87 shCTRL cells) | IC50 (U87 shTau cells)
1 | Nc1nc2ccc3oc(-c4ccccc4F)cc(=O)c3c2s1 [Compound 6] | 1.3 ± 0.4 µM | 9 ± 0.5 µM | 1 ± 0.4 µM | 2.9 ± 0.7 µM | 2.6 ± 1.3 µM | – | – | – | – | – | –
2 | CCOC(=O)c1ccc(-c2cc(=O)c3c(ccc4nc(N)sc43)o2)cc1 [Compound 4] | > 100 µM | 9.7 ± 0.2 µM | > 100 µM | > 100 µM | > 100 µM | > 100 µM | 0.12 ± 0.01 | 2.4 ± 0.8 µM | > 100 µM | > 100 µM | > 100 µM
3 | COc1c(-c2ccc(F)cc2)oc2ccc3nc(N)sc3c2c1=O [Compound 15] | 1.9 ± 0.2 µM | 6.5 ± 0.1 µM | 4.1 ± 1.6 µM | 11.3 ± 4.1 µM | 8.8 ± 3.3 µM | – | 0.23 ± 0.03 | 4.1 ± 1 µM | – | – | –
4 | Nc1nc2ccc3oc(-c4ccc(F)cc4)c(O)c(=O)c3c2s1 [Compound 11] | 1.9 ± 0.2 µM | > 100 µM | 5 ± 1.1 µM | 3.5 ± 1 µM | 5.1 ± 1.8 µM | – | 0.16 ± 0.01 | 5.2 ± 1.8 µM | – | 0.3 ± 0.2 µM | 0.4 ± 0.4 µM
5 | COc1c(-c2ccccc2F)oc2ccc3nc(N)sc3c2c1=O [Compound 13] | 1.7 ± 0.1 µM | 9 ± 0.6 µM | 1.5 ± 0.3 µM | 9.2 ± 1.2 µM | 7.9 ± 3.4 µM | – | 0.21 ± 0.02 | 5.4 ± 2.5 µM | – | – | –
6 | Nc1nc2ccc3nc(-c4ccc(Oc5ccccc5)cc4)[nH]c(=O)c3c2s1 [Compound 17] | > 100 µM | > 100 µM | > 100 µM | > 100 µM | 5.1 ± 0.8 µM | > 100 µM | 0.14 ± 0.05 | 3.5 ± 1 µM | > 100 µM | > 100 µM | > 100 µM
7 | Nc1nc2ccc3oc(-c4cccc(F)c4)c(O)c(=O)c3c2s1 [Compound 10] | 1 ± 0.4 µM | 9.9 ± 1.1 µM | 0.9 ± 0.4 µM | 1.5 ± 0.7 µM | 2.6 ± 1.5 µM | – | – | 6.3 ± 1.2 µM | – | 1.2 ± 0.4 µM | 1.4 ± 0.6 µM
8 | Nc1nc2ccc3nc(-c4cccc(Oc5ccccc5)c4)[nH]c(=O)c3c2s1 [Compound 16] | > 100 µM | 10.8 ± 2.2 µM | > 100 µM | > 100 µM | > 100 µM | – | 0.20 ± 0.03 | 5 ± 2.5 µM | – | > 100 µM | > 100 µM
9 | Nc1nc2ccc3oc(-c4ccc(F)cc4)cc(=O)c3c2s1 [Compound 8] | 3.6 ± 1.1 µM | 15 ± 1.2 µM | 10.2 ± 5 µM | > 100 µM | > 100 µM | – | – | – | – | – | –
10 | Nc1nc2ccc3oc(-c4ccccc4)cc(=O)c3c2s1 [Compound 3] | > 100 µM | > 100 µM | > 100 µM | > 100 µM | > 100 µM | > 100 µM | – | – | > 100 µM | > 100 µM | > 100 µM
11 | Nc1nc2ccc3oc(-c4ccccc4)c(O)c(=O)c3c2s1 [Compound 12] | – | 12.4 ± 1.2 µM | – | 1.7 ± 0.9 µM | 4.1 ± 3.4 µM | – | 0.19 ± 0.05 | 4.7 ± 1.3 µM | – | 0.6 ± 0.1 µM | 0.5 ± 0.3 µM
12 | Nc1nc2ccc3oc(-c4cccc(F)c4)cc(=O)c3c2s1 [Compound 7] | > 100 µM | 17 ± 2.9 µM | > 100 µM | > 100 µM | > 100 µM | – | 0.21 ± 0.02 | 5.9 ± 1.6 µM | – | – | –
